Here are results for 43 compounds from patent US9783536B2, “Nitrogen-containing heterocyclic compound or salt thereof” (FUJIFILM Corporation, priority 2013, dated 2017).

In test [1] the target is T1, GST fusion human ERK2 protein (Homo sapiens, UniProt P28482).
T1 construct: purchased Carna Biosciences, Inc; host or cells: E. coli expression system
The test is described as follows: ERK2 enzyme assay (1). Format: biochemical. The conditions noted are these: 2.5 nmol/L ERK2, ATP 43.1 μmol/L; read-out: ERK2 enzyme inhibitory activity (1). The protocol: In an ERK2 enzyme assay, GLUTATHIONE S-TRANSFERASE (GST) FUSION HUMAN ERK2 PROTEIN (manufactured by Carna Biosciences, Inc.), which was produced by using an E. coli expression system, was used.
12 μL of a reaction liquid (2.5 nmol/L ERK2, 100 mmol/L Hepes, 10 mmol/L MgCl2, 1.5 mmol/L DTT, 0.003% Brij35, pH 7.5) including ERK2 protein and a test compound having a predetermined concentration was allowed to stand at room temperature for 15 minutes. Then, 3 μL of a mixture liquid of FL-PEPTIDE8 (5-FAM-IPTSPITTTYFFFKKK-COOH) (manufactured by Caliper Life Sciences), which is substrate peptide, and ATP (manufactured by Sigma-Aldrich Co. LLC.) was added thereto such that the final concentrations thereof became 4.25 μmol/L and 43.1 μmol/L, respectively, and an enzyme reaction was performed by allowing to stand at 25° C. for 120 minutes.
After the reaction, the enzyme reaction was stopped by adding 30 μL of a reaction stopper liquid (100 mmol/L HEPES, 11.2 mmol/L EDTA, 5.6% Brij35, pH 7.5) including a 0.5% COATING REAGENT 8 (trade name, manufactured by Perkin Elmer Inc.) thereto. Then, phosphorylated peptide and non-phosphorylated peptide were separated using LABCHIP EZ READER (trade name, manufactured by Caliper Life Sciences), and the porportion of the phosphorylated peptide was quantified.
The inhibitory activities of the compounds were evaluated using IC50 (50% inhibitory concentration). The IC50 was calculated using XLFIT (trade name, manufactured by ID Business Solutions).

In the next test the target is T2, human PI3Kα protein (Homo sapiens, UniProt P42336).
T2 construct: purchased Carna Biosciences, Inc; host or cells: baculovirus expression system
The test is described as follows: PI3Kα enzyme assay (ADP-Glo). Type of test: biochemical. The conditions noted are these: 4.5 nmol/L PI3Kα, PIP2 50 μmol/L, ATP 100 μmol/L; read-out: PI3Kα enzyme inhibitory activity. A digest of the protocol:
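Biotinylated human PI3Kα (baculovirus-expressed, 4.5 nmol/L) pre-incubated 15 min with compound in Tris-HCl pH 7.5, MgCl2, BSA; reaction 60 min at 25° C with 50 μmol/L PIP2 and 100 μmol/L ATP final. ADP quantified by ADP-Glo luminescence; IC50 calculated.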
(ADP-Glo turns the ADP formed in a reaction into a luminescent signal.)

Structures can show the parent of a compound that is named as a salt.

T2 sequence (P42336 whole entry): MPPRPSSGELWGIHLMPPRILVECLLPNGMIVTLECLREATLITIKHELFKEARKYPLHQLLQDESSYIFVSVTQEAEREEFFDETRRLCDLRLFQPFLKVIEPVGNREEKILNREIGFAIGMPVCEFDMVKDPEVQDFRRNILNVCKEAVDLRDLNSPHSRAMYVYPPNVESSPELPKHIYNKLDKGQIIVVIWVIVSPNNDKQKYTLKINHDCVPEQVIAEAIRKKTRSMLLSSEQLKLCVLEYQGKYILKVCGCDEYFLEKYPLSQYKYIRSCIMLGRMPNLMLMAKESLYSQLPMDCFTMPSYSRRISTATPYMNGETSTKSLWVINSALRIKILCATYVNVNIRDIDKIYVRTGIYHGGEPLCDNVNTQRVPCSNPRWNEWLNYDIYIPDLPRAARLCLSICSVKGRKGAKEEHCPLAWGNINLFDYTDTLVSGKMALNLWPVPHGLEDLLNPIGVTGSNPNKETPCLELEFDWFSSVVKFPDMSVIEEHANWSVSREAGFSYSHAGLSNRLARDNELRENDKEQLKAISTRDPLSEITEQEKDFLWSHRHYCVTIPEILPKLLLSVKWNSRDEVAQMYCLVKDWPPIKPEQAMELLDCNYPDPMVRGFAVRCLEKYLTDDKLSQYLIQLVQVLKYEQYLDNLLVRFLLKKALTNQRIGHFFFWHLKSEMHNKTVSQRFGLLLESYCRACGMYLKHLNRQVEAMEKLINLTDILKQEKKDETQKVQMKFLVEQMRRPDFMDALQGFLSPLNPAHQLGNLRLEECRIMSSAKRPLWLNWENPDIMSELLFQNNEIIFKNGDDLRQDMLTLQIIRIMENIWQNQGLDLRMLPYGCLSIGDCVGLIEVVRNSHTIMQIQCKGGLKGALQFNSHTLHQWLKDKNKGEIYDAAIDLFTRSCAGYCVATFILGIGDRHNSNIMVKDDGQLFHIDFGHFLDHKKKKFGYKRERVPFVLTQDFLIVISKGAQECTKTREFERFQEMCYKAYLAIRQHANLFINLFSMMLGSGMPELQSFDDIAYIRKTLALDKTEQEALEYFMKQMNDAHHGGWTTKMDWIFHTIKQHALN
T2 sequence (P27986 whole entry partner): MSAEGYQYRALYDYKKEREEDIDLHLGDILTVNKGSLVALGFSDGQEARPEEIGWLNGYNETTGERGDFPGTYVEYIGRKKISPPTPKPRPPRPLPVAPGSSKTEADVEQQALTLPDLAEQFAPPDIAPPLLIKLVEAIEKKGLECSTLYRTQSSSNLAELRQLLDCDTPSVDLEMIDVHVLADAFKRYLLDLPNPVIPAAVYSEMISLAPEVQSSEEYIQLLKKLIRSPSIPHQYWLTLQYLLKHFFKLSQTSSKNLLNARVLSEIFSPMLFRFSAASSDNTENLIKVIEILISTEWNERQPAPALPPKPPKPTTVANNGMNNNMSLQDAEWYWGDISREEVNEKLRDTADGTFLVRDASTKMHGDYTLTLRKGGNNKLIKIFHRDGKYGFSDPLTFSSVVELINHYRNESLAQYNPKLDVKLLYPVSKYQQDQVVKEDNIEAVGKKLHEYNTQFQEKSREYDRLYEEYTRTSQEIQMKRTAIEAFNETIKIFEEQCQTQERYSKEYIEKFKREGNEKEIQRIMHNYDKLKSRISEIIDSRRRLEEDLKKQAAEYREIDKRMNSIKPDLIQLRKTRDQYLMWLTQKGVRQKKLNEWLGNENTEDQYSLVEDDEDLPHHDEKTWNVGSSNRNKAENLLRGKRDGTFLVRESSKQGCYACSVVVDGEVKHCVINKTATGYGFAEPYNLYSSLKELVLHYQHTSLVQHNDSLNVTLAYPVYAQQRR
T1 sequence (P28482 whole entry, the tested form may be a part): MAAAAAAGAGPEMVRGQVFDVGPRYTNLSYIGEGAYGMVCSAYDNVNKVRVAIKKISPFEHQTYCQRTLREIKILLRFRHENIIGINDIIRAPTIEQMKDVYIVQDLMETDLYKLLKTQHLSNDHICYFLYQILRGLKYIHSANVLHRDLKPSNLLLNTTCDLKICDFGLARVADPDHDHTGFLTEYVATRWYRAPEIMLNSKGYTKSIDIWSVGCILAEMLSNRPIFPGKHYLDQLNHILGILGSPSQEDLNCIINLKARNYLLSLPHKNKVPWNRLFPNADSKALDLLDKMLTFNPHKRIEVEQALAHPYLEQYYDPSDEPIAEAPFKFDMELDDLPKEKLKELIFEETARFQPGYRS

For the compound `CN1CCN(c2cnc3ccc(Nc4nnc(C5CCCC5)s4)nc3c2)CCC1=O` [Example 0064, 1-(6-((5-cyclopentyl-1,3,4-thiadiazol-2-yl)amino)-1,5-naphthyridin-3-yl)-4-methyl-1,4-diazepan-5-one hydrochloride], the figures for the IC50 (in test [1]; at human PI3Kα protein) were less than 1000 nM and 1000 to 10000 nM, respectively.

For the compound `CC(=O)N1CCC(Nc2cnc3ccc(Nc4nnc(C5CCCC5)s4)nc3c2)C1` (centres unmarked) [Example 0065], the figures for the IC50 (in test [1]; on human PI3Kα protein) were less than 1000 nM and 1000 to 10000 nM, respectively.

With `c1cc(N2CCOCC2)ncc1Nc1cnc2ccc(Nc3nnc(C4CCCC4)s3)nc2c1` [Example 0066], the IC50 (in test [1]; on human PI3Kα protein) was less than 1000 nM in each case.

In the case of `COc1ccc(Nc2cnc3ccc(Nc4nnc(C5CCCC5)s4)nc3c2)cn1` [Example 0067], the IC50 (in test [1]; at human PI3Kα protein) was less than 1000 nM throughout.

`c1ccc(CNc2cnc3ccc(Nc4nnc(C5CCCC5)s4)nc3c2)nc1` [Example 0068]: the IC50 in test [1] is less than 1000 nM; at human PI3Kα protein, 1000 to 10000 nM.

As to `c1ccc(-c2ccc(Nc3cnc4ccc(Nc5nnc(C6CCCC6)s5)nc4c3)cn2)cc1` [Example 0069], the figures for the IC50 (in test [1]; on human PI3Kα protein) were 1000 to 10000 nM and 10000 to 50000 nM, respectively.

With `c1ccc(-c2cncc(Nc3cnc4ccc(Nc5nnc(C6CCCC6)s5)nc4c3)c2)cc1` [Example 0070], the IC50 (in test [1]; at human PI3Kα protein) was less than 1000 nM in each case.

On to `c1cnn(-c2cncc(Nc3cnc4ccc(Nc5nnc(C6CCCC6)s5)nc4c3)c2)c1` [Example 0073], for which the IC50 (in test [1]; on human PI3Kα protein) was less than 1000 nM in each case.

Take `Cc1ncc(Nc2cnc3ccc(Nc4nnc(C5CCCC5)s4)nc3c2)cc1-n1nccn1` [Example 0074]: the IC50 (in test [1]; on human PI3Kα protein) was less than 1000 nM each time.

As to `c1ccc2c(Nc3cnc4ccc(Nc5nnc(C6CCCC6)s5)nc4c3)cncc2c1` [Example 0075], the IC50 in test [1] is 1000 to 10000 nM; on human PI3Kα protein it was less than 1000 nM.

Turning to `CC(=O)N1CCCC(Nc2cnc3ccc(Nc4nnc(C5CCCC5)s4)nc3c2)C1` (centres unmarked) [Example 0076], the IC50 (in test [1]; on human PI3Kα protein) was less than 1000 nM each time.

For the compound `COc1ncccc1Nc1cnc2ccc(Nc3nnc(C4CCCC4)s3)nc2c1` [Example 0077], the IC50 (in test [1]; at human PI3Kα protein) was 1000 to 10000 nM each time.

For `Clc1cc(Nc2cnc3ccc(Nc4nnc(C5CCCC5)s4)nc3c2)cnc1-n1cccn1` [Example 0078], the IC50 (in test [1]; at human PI3Kα protein) was less than 1000 nM in each case.

As for `Cc1ccncc1Nc1cnc2ccc(Nc3nnc(C4CCCC4)s3)nc2c1` [Example 0079], the IC50 is less than 1000 nM in test [1] and 1000 to 10000 nM at human PI3Kα protein.

Take `COc1cc(Nc2cnc3ccc(Nc4nnc(C5CCCC5)s4)nc3c2)cc(OC)c1` [Example 0081]: the IC50 was less than 1000 nM in test [1] and 1000 to 10000 nM at human PI3Kα protein.

Regarding `c1ncc(OCCN2CCOCC2)cc1Nc1cnc2ccc(Nc3nnc(C4CCCC4)s3)nc2c1` [Example 0082], the IC50 (in test [1]; at human PI3Kα protein) was less than 1000 nM throughout.

As to `c1ncc(OCCN2CCCC2)cc1Nc1cnc2ccc(Nc3nnc(C4CCCC4)s3)nc2c1` [Example 0083], the IC50 (in test [1]; on human PI3Kα protein) was less than 1000 nM throughout.

Take `CS(=O)(=O)N1CCC(Nc2cnc3ccc(Nc4nnc(C5CCCC5)s4)nc3c2)CC1` [Example 0098]: the IC50 (in test [1]; at human PI3Kα protein) was less than 1000 nM in each case.

Consider `CC(C)c1cncc(Nc2cnc3ccc(Nc4nnc(C5CCCC5)s4)nc3c2)c1` [Example 0099], for which the IC50 (in test [1]; on human PI3Kα protein) was less than 1000 nM each time.

Consider `CC(C)Oc1cncc(Nc2cnc3ccc(Nc4nnc(C5CCCC5)s4)nc3c2)c1` [Example 0100], for which the IC50 in test [1] was less than 1000 nM; at human PI3Kα protein, 1000 to 10000 nM.

For `c1ncc(N2CCCCC2)cc1Nc1cnc2ccc(Nc3nnc(C4CCCC4)s3)nc2c1` [Example 0101], the IC50 (in test [1]; on human PI3Kα protein) was less than 1000 nM each time.

Take `CN1CCN(c2cncc(Nc3cnc4ccc(Nc5nnc(C6CCCC6)s5)nc4c3)c2)CC1` [Example 0102]: the IC50 (in test [1]; at human PI3Kα protein) was less than 1000 nM in each case.

As to `CC(C)(C)c1cncc(Nc2cnc3ccc(Nc4nnc(C5CCCC5)s4)nc3c2)c1` [Example 0103], the IC50 (in test [1]; on human PI3Kα protein) was less than 1000 nM in each case.

Take `O=C(c1ccc(Nc2cnc3ccc(Nc4nnc(C5CCCC5)s4)nc3c2)cc1)N1CCOCC1` [Example 0104]: the IC50 in test [1] was less than 1000 nM; at human PI3Kα protein it was 1000 to 10000 nM.

Take `O=C(Cc1ccc(Nc2cnc3ccc(Nc4nnc(C5CCCC5)s4)nc3c2)cc1)N1CCOCC1` [Example 0105]: the IC50 (in test [1]; on human PI3Kα protein) was less than 1000 nM each time.

Take `O=C(c1ccc(Nc2cnc3ccc(Nc4nnc(C5CCCC5)s4)nc3c2)cn1)N1CCOCC1` [Example 0106]: the IC50 (in test [1]; at human PI3Kα protein) was less than 1000 nM each time.

Turning to `c1cc(Nc2cnc3ccc(Nc4nnc(C5CCCC5)s4)nc3c2)ccc1CCN1CCOCC1` [Example 0107], the IC50 (in test [1]; at human PI3Kα protein) was less than 1000 nM throughout.

On to `CS(=O)(=O)N1CCC(Nc2cnc3ccc(Nc4nnc(C5CCCC5)s4)nc3c2)C1` (centres unmarked) [Example 0108], for which the IC50 in test [1] is less than 1000 nM; on human PI3Kα protein, 1000 to 10000 nM.

In the case of `CS(=O)(=O)N1CCCC(Nc2cnc3ccc(Nc4nnc(C5CCCC5)s4)nc3c2)C1` (centres unmarked) [Example 0109], the IC50 is 1000 to 10000 nM in test [1] and less than 1000 nM on human PI3Kα protein.

In the case of `CCc1nn(C)cc1-c1cnc2ccc(Nc3nnc(C4CCCC4)s3)nc2c1` [Example 0110, 5-cyclopentyl-N-(7-(3-ethyl-1-methyl-1H-pyrazol-4-yl)-1,5-naphthyridin-2-yl)-1,3,4-thiadiazole-2-amine], the IC50 (in test [1]; at human PI3Kα protein) was less than 1000 nM throughout.

Take `CC(C)c1cnc(Nc2ccc3ncc(-c4cnn(CCCN5CCCC5)c4)cc3n2)s1` [Example 0119]: the IC50 (in test [1]; at human PI3Kα protein) was less than 1000 nM throughout.

On to `CC(C)c1cnc(Nc2ccc3ncc(-c4cnn(C)c4)cc3n2)s1` [Example 0123, 5-isopropyl-N-(7-(1-methyl-1H-pyrazol-4-yl)-1,5-naphthyridin-2-yl)thiazole-2-amine], for which the IC50 (in test [1]; at human PI3Kα protein) was less than 1000 nM throughout.

Take `CC(C)c1nnc(Nc2ccc3ncc(-c4cn(C)nc4C(C)C)cc3n2)s1` [Example 0125]: the IC50 (in test [1]; on human PI3Kα protein) was less than 1000 nM each time.

Regarding `c1nc2ccc(Nc3ncc(C4CCCC4)s3)nc2cc1-c1cnn(CCCN2CCCC2)c1` [Example 0126, 5-cyclopentyl-N-(7-(1-(3-(pyrrolidin-1-yl)propyl)-1H-pyrazol-4-yl)-1,5-naphthyridin-2-yl)thiazole-2-amine], the IC50 (in test [1]; on human PI3Kα protein) was less than 1000 nM throughout.

In the case of `Cn1cc(-c2cnc3ccc(Nc4ncc(C5CCCC5)s4)nc3c2)cn1` [Example 0127], the IC50 in test [1] was less than 1000 nM; on human PI3Kα protein, 1000 to 10000 nM.

For the compound `CC(C)c1nnc(Nc2ccc3ncc(-c4cn(C)nc4-c4ccccn4)cc3n2)s1` [Example 0136, 5-isopropyl-N-(7-(1-methyl-3-(pyridin-2-yl)-1H-pyrazol-4-yl)-1,5-naphthyridin-2-yl)-1,3,4-thiadiazole-2-amine], the IC50 (in test [1]; on human PI3Kα protein) was less than 1000 nM in each case.

With `COCc1csc(Nc2ccc3ncc(-c4cnn(C)c4)cc3n2)n1` [Example 0141], the IC50 (in test [1]; at human PI3Kα protein) was 1000 to 10000 nM each time.

`CC(C)Cc1cnc(Nc2ccc3ncc(-c4cnn(C)c4)cc3n2)s1` [Example 0143, 5-isobutyl-N-(7-(1-methyl-1H-pyrazol-4-yl)-1,5-naphthyridin-2-yl)thiazole-2-amine]: the IC50 was less than 1000 nM in test [1] and 1000 to 10000 nM on human PI3Kα protein.

`CC(C)Cc1cnc(Nc2ccc3ncc(-c4cnn(CCCN5CCCC5)c4)cc3n2)s1` [Example 0144]: the IC50 (in test [1]; at human PI3Kα protein) was less than 1000 nM throughout.

For the compound `CC(C)OCc1nn(C)cc1-c1cnc2ccc(Nc3nnc(C(C)C)s3)nc2c1` [Example 0146], the IC50 (in test [1]; on human PI3Kα protein) was less than 1000 nM throughout.

For `Cn1cc(-c2cnc3ccc(Nc4ccc(Cl)nn4)nc3c2)cn1` [Example 0152], the figures for the IC50 (in test [1]; on human PI3Kα protein) were less than 1000 nM and 1000 to 10000 nM, respectively.

In the case of `CC(C)c1cnnc(Nc2ccc3ncc(-c4cn[nH]c4)cc3n2)c1` [Example 0153], the results for the IC50 (in test [1]; on human PI3Kα protein) were less than 1000 nM and 1000 to 10000 nM, respectively.

For the compound `Cc1cnnc(Nc2ccc3ncc(-c4cn[nH]c4)cc3n2)c1` [Example 0154], the IC50 was less than 1000 nM in test [1] and 1000 to 10000 nM on human PI3Kα protein.
